Results taken from patent US9732094B2, “Arylquinazolines” (Merck Patent GmbH, priority 2013, dated 2017).
Read-outs that look alike come from different tables or passages of the source.

Columns and labels:
[1] = target: DNA-PK phosphorylation at serine 2056 (Homo sapiens (Human), UniProt P78527); test: DNA-PK phosphorylation at serine 2056 (cellular), bleomycin-treated HCT116 cells, ELISA; type: cell-based; settings: read-out: IC50 pDNA-PK
Summary of the method: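 Chemiluminescent ELISA quantified DNA-PK Ser2056 phosphorylation relative to total DNA-PKcs in HCT116 cells. Cells received compounds together with 10 μM bleomycin for 6 h; DMSO served as blank.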

[2] = target: DNA-PK (Homo sapiens (Human), UniProt P78527); test: DNA-PK assay (biochemical), flashplate 33P-ATP kinase assay
Summary of the method: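 Reactions ran in streptavidin-coated flashplates and were halted by 200 mM EDTA, with a further 30 min at room temperature before saline washing.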

[3] = target: Kv11.1 (hERG) (Homo sapiens (Human), UniProt Q12809); test: Kv11.1 (hERG) ion channel activity (patch clamp assay), HEK293 cells transfected with hERG gene
Sequence of Kv11.1 (hERG) (Q12809 whole entry): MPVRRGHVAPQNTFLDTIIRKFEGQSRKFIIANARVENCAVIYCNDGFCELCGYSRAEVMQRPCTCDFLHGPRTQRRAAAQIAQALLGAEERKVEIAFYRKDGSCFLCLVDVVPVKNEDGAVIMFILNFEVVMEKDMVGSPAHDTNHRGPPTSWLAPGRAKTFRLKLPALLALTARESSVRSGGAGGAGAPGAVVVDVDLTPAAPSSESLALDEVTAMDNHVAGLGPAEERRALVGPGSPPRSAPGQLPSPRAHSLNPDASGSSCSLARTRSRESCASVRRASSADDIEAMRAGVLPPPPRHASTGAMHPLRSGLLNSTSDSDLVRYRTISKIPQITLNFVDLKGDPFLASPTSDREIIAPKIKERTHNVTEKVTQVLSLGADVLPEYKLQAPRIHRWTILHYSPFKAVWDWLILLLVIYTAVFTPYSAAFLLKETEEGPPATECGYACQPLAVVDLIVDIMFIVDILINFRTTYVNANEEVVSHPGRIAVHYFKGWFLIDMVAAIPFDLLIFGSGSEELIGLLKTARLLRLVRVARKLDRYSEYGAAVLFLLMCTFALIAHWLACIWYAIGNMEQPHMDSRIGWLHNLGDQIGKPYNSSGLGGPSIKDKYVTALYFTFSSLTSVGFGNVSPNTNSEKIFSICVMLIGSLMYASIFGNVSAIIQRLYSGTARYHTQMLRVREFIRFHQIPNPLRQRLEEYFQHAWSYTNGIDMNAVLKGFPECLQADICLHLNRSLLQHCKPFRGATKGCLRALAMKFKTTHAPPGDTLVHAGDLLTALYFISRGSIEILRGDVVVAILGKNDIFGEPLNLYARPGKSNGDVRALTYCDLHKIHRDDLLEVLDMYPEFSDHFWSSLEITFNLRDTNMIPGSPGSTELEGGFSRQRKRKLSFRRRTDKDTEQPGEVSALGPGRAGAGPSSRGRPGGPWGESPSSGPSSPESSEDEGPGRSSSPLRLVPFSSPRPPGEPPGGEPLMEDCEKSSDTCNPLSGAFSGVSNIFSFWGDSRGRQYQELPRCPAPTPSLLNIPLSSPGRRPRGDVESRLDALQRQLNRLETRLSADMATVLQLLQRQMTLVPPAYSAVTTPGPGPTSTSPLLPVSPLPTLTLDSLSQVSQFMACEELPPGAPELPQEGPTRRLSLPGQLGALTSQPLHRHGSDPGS

[4] = cellular DNA-PK phosphorylation at serine 2056, HCT116
[5] = read-out: Ki [Kv1.11 hERG], hERG patch clamp assay (cells without asterisk)
[6] = cellular, HCT116 cells, 10 μM bleomycin, six hours
[7] = Ki [Kv1.11 hERG], patch clamp, HEK293 transfected with hERG gene
[8] = Ki [Kv1.11 hERG], hERG patch clamp assay (cells without asterisk)
[9] = read-out: Ki [Kv1.11 hERG], patch clamp, HEK293 transfected with hERG gene

IC50 [1, 4] [µM]	IC50 ([2]; biochemical DNA-PK assay) [µM]	IC50 [1, 6] [µM]	IC50 ([2]; enzymatic, 5 μM ATP) [µM]	SMILES	Ki [3, 5] [µM]	also measured
0.5 to 5	0.003 to 0.007			OC(c1cc(-c2ncnc3cc(N4CCOCC4)ccc23)ccc1Cl)c1ncnn2cccc12 (stereo not drawn) [Example 362, [2-Chloro-5-(7-morpholin-4-yl-quinazolin-4-yl)-phenyl]pyrrolo[2,1-f]-[1,2,4]triazin-4-yl-methanol]	< 10	
				Cc1nc(C(O)c2cnc(F)c(-c3ncnc4cc(N5CCOCC5)ncc34)c2)sc1C (stereo not drawn) [Example 203, (4,5-Dimethyl-thiazol-2-yl)-[6-fluoro-5-(7-morpholin-4-yl-pyrido[4,3-d}-pyrimidin-4-yl)-pyridin-3-yl]-methanol]		IC50 ([1]; Table 5, HCT116 cells): 10 to 30 µM; IC50 ([2]; Table 5): > 0.03 µM; Ki ([3]; read-out: Ki [Kv1.11 hERG], Table 5): > 25 µM
		0.5 to 5	0.003 to 0.007	OC(c1ccc(F)c(-c2ncnc3cc(N4CCOCC4)ccc23)c1)c1ccc(OC(F)F)nn1 (stereo not drawn) [Example 121, (6-Difluoro-methoxy-pyridazin-3-yl)-[4-fluoro-3-(7-morpholin-4-yl-quinazolin-4-yl)-phenyl]methanol]		Ki [3, 7]: 15 to 25 µM
		< 0.5	< 0.003	OC(c1ccc(F)c(-c2ncnc3cc(N4CCOCC4)sc23)c1)c1nccnc1Cl (stereo not drawn) [Example 37, (3-Chloropyrazin-2-yl)-[4-fluoro-3-(6-morpholin-4-ylthieno[3,2-d]pyrimidin-4-yl)phenyl]-methanol]		Ki [3, 7]: 10 to 15 µM
10 to 30	0.007 to 0.03			NC(=O)C(c1ccc(F)c(-c2ncnc3cc(N4CCOCC4)ccc23)c1)c1ncnn2cccc12 (stereo not drawn) [Example 299, 2-[4-Fluoro-3-(7-morpholin-4-yl-quinazolin-4-yl)-phenyl]-2-pyrrolo-[2,1-f][1,2,4]triazin-4-ylacetamide]	< 10	
10 to 30	> 0.03			Cn1c(C(C(N)=O)c2cc(-c3ncnc4cc(N5CCOCC5)ccc34)c(F)cc2Cl)cccc1=O (stereo not drawn) [Example 312, 2-[2-Chloro-4-fluoro-5-(7-morpholin-4-yl-quinazolin-4-yl)-phenyl]-2-(1-methyl-6-oxo-1,6-dihydro-pyridin-2-yl)-acetamide]	> 25	
< 0.5	< 0.003			OC(c1cc(-c2ncnc3cc(N4CCOCC4)ccc23)c(F)cc1Cl)c1ncnc2ccoc12 (stereo not drawn) [Example 440, [2-Chloro-4-fluoro-5-(7-morpholin-4-yl-quinazolin-4-yl)-phenyl]furo[3,2-d}-pyrimidin-4-yl-methanol]		Ki [3, 8]: 15 to 25 µM
< 0.5	< 0.003			Cn1c(C(O)c2cc(-c3ncnc4cc(N5CCOCC5)ccc34)c(F)cc2Cl)cccc1=O (stereo not drawn) [Example 383, 6-{[2-Chloro-4-fluoro-5-(7-morpholin-4-yl-quinazolin-4-yl)-phenyl]hydroxy-methyl}-1-methyl-1H-pyridin-2-one]	> 25	
		< 0.5	0.003 to 0.007	CCn1nc(C(O)c2cc(-c3ncnc4cc(N5CCOCC5)ccc34)c(F)cc2Cl)ccc1=O (stereo not drawn) [Example 93, 6-{[2-Chloro-4-fluoro-5-(7-morpholin-4-yl-quinazolin-4-y1)phenyl]-hydroxymethyl}-2-ethyl-2H-pyridazin-3-one]		Ki [3, 7]: 10 to 15 µM
				COc1ccc(C(O)c2cc(-c3ncnc4cc(N5CCOCC5)ccc34)c(F)cc2F)nc1 (stereo not drawn) [Example 224, [2,4-Difluoro-5-(7-morpholin-4-yl-quinazolin-4-yl)-phenyl]-(5-methoxy-pyridin-2-yl)methanol]		IC50 ([1]; Table 7, HCT116 cells): 0.5 to 5 µM; IC50 ([2]; Table 7): 0.003 to 0.007 µM; Ki ([3]; Ki [Kv1.11 hERG], Table 7): 15 to 25 µM
		5 to 10	0.007 to 0.03	OC(c1ccc2nccn2n1)c1cc(-c2ncnc3cc(N4CCOCC4)ccc23)c(F)cc1F (single isomer, unassigned) [Example 20, [2,4-Difluoro-5-(7-morpholin-4-yl-quinazolin-4-yl)phenyl]-imidazo[1,2-b]pyridazin-6-ylmethanol]		Ki [3, 9]: > 25 µM
0.5 to 5	0.003 to 0.007			Cc1cncnc1C(C(N)=O)c1cc(-c2ncnc3cc(N4CCOCC4)ccc23)ccc1Cl (stereo not drawn) [Example 377, 2-[2-Chloro-5-(7-morpholin-4-yl-quinazolin-4-yl)-phenyl]-2-(5-methyl-pyrimidin-4-yl)-acetamide]		Ki [3, 8]: 15 to 25 µM
		< 0.5	0.003 to 0.007	OC(c1ccn2nccc2n1)c1cc(-c2ncnc3cc(N4CCOCC4)ccc23)c(F)cc1Cl (stereo not drawn) [Example 39, [2-Chloro-4-fluoro-5-(7-morpholin-4-yl-quinazolin-4-yl)phenyl]-pyrazolo[1,5-a]-pyrimidin-5-ylmethanol]		Ki [3, 7]: 15 to 25 µM
		5 to 10	> 0.03	CCOc1cnnc(C(O)c2ccc(F)c(-c3ncnc4cc(N5CCOCC5)ccc34)c2)c1 (stereo not drawn) [Example 79, (5-Ethoxypyridazin-3-yl)-[4-fluoro-3-(7-morpholin-4-yl-quinazolin-4-yl)phenyl]-methanol]		Ki [3, 7]: 15 to 25 µM
		0.5 to 5	0.003 to 0.007	OC(c1ccc(F)c(-c2ncnc3cc(N4CCOCC4)ccc23)c1)c1c(Cl)cncc1Cl (stereo not drawn) [Example 17, (3,5-Dichloro-pyridin-4-yl)-[4-Fluoro-3-(7-morpholin-4-yl-quinazolin-4-yl)phenyl]-methanol]		Ki [3, 7]: 10 to 15 µM
0.5 to 5	0.003 to 0.007			COc1cncnc1C(O)c1cc(-c2ncnc3cc(N4CCOCC4)ccc23)ccc1Cl (stereo not drawn) [Example 409, [2-Chloro-5-(7-morpholin-4-yl-quinazolin-4-yl)-phenyl]-(5-methoxy-pyrimidin-4-yl)-methanol]	> 25	
		< 0.5	< 0.003	COc1nccnc1C(O)c1ccc(F)c(-c2ncnc3cc(N4CCOCC4)ccc23)c1 (stereo not drawn) [Example 38, [4-Fluoro-3-(7-morpholin-4-yl-quinazolin-4-yl)phenyl]-(3-methoxy-pyrazin-2-yl)methanol]		Ki [3, 9]: > 25 µM
		0.5 to 5	0.003 to 0.007	NC(=O)c1ccc(C(O)c2cc(-c3ncnc4cc(N5CCOCC5)ccc34)c(F)cc2Cl)nn1 (stereo not drawn) [Example 62, 6-{[2-Chloro-4-fluoro-5-(7-morpholin-4-yl-quinazolin-4-yl)phenyl]-hydroxymethyl}-pyridazine-3-carboxylic acid amide]		Ki [3, 9]: > 25 µM
				OC(c1ccc(F)c(-c2ncnc3cc(N4CCOCC4)ncc23)c1)c1nccs1 (stereo not drawn) [Example 140, [4-Fluoro-3-(7-morpholin-4-yl-pyrido[4,3-d}-pyrimidin-4-yl)-phenyl]thiazol-2-yl-methanol]		IC50 ([1]; Table 5, HCT116 cells): 10 to 30 µM; IC50 ([2]; Table 5): > 0.03 µM; Ki ([3]; Ki [Kv1.11 hERG], Table 5): 15 to 25 µM
< 0.5	< 0.003			COc1ccc(C(O)c2cc(-c3ncnc4cc(N5CCOCC5)cc(F)c34)c(F)cc2Cl)nn1 (single isomer, unassigned) [Example 271, [2-Chloro-4-fluoro-5-(5-fluoro-7-morpholin-4-yl-quinazolin-4-yl)-phenyl]-(6-methoxy-pyridazin-3-yl)-methanol]	> 25	
5 to 10	0.007 to 0.03			Cn1c(C(O)c2cc(-c3ncnc4cc(N5CCOCC5)ccc34)c(F)cc2Cl)nccc1=O (stereo not drawn) [Example 368, 2-{[2-Chloro-4-fluoro-5-(7-morpholin-4-yl-quinazolin-4-yl)-phenyl]hydroxy-methyl}-3-methyl-3H-pyrimidin-4-one]	> 25	
< 0.5	0.003 to 0.007			COc1nccnc1C(O)c1cc(-c2ncnc3cc(N4CCOCC4)ccc23)c(F)cc1F (stereo not drawn) [Example 467, [2,4-Difluoro-5-(7-morpholin-4-yl-quinazolin-4-yl)-phenyl]-(3-methoxy-pyrazin-2-yl)-methanol]	> 25	
0.5 to 5	0.007 to 0.03			OC(c1ccc(F)c(-c2ncnc3cc(N4CCOCC4)ccc23)c1)c1ncnc2c1CCNC2 (stereo not drawn) [Example 388, [4-Fluoro-3-(7-morpholin-4-yl-quinazolin-4-yl)-phenyl]-(5,6,7,8-tetrahydropyrido-[3,4-d}pyrimidin-4-yl)-methanol]		Ki [3, 8]: 10 to 15 µM
		0.5 to 5	0.007 to 0.03	COc1ccc(C(O)c2cc(-c3ncnc4cc(N5CCOCC5)ccc34)c(F)cc2F)cc1 (stereo not drawn) [Example 120, [2.4-Difluoro-5-(7-morpholin-4-yl-quinazolin-4-yl)-phenyl]-(4-methoxyphenyl)-methanol]		Ki [3, 9]: < 10 µM
0.5 to 5	< 0.003			COc1cncnc1C(O)c1cc(-c2ncnc3cc(N4CCOCC4)ccc23)c(F)cc1Cl (stereo not drawn) [Example 447, [2-Chloro-4-fluoro-5-(7-morpholin-4-yl-quinazolin-4-yl)-phenyl]-(5-methoxy-pyrimidin-4-yl)-methanol]		Ki [3, 8]: 10 to 15 µM

SMILES	IC50 [1, 4] [µM]	IC50 ([2]; biochemical DNA-PK assay) [µM]	IC50 [1, 6] [µM]	IC50 ([2]; enzymatic, 5 μM ATP) [µM]	Ki [3, 5] [µM]	also measured
OC(c1cc(-c2ncnc3cc(N4CCOCC4)ccc23)c(F)cc1F)c1ncnc2c1CCNC2 (stereo not drawn) [Example 387, [2,4-Difluoro-5-(7-morpholin-4-yl-quinazolin-4-yl)-phenyl]-(5,6,7,8-tetrahydropyrido-[3,4-d}pyrimidin-4-yl)-methanol]	0.5 to 5	0.007 to 0.03				Ki [3, 8]: 15 to 25 µM
COc1ccc(C(O)c2ccc(F)c(-c3ncnc4cc(N5CCOCC5)cc(F)c34)c2)nn1 (stereo not drawn) [Example 260, [4-Fluoro-3-(5-fluoro-7-morpholin-4-yl-quinazolin-4-yl)-phenyl]-(6-methoxy-pyridazin-3-yl)-methanol]	< 0.5	< 0.003			> 25	
